The target in the assay is T1, HCV NS5B RdRp (Hepatitis C virus genotype 1b, UniProt Q9WMX2).
T1 construct: The protein was expressed with an 18 amino acid C-terminal truncation to enhance the solubility; made in house; host or cells: E. coli BL21(DE3)
Briefly: HCV NS5B RdRp enzyme inhibition assay. Type of assay: biochemical. How it is done:
HCV NS5B RdRp cloning, expression, and purification. The cDNA encoding the NS5B protein of HCV, genotype 1b, was cloned into the pET21a expression vector. The protein was expressed with an 18 amino acid C-terminal truncation to enhance the solubility. The E. coli competent cell line BL21(DE3) was used for expression of the protein. Cultures were grown at 37° C. for ˜4 hours until the cultures reached an optical density of 2.0 at 600 nm. The cultures were cooled to 20° C. and induced with 1 mM IPTG. Fresh ampicillin was added to a final concentration of 50 ug/ml and the cells were grown overnight at 20° C.
Cell pellets (3L) were lysed for purification to yield 15–24 mgs of purified NS5B. The lysis buffer consisted of 20 mM Tris-HCl, pH 7.4, 500 mM NaCl, 0.5% triton X-100, 1 mM DTT, 1 mM EDTA, 20% glycerol, 0.5 mg/ml lysozyme, 10 mM MgCl2, 15 ug/ml deoxyribonuclease I, and Complete TM protease inhibitor tablets (Roche). After addition of the lysis buffer, frozen cell pellets were resuspended using a tissue homogenizer. To reduce the viscosity of the sample, aliquots of the lysate were sonicated on ice using a microtip attached to a Branson sonicator. The sonicated lysate was centrifuged at 100,000×g for 1 hr at 4° C. and filtered through a 0.2 μm filter unit (Corning).
The protein was purified using three sequential chromatography steps: Heparin sepharose CL-6B, polyU sepharose 4B, and Hitrap SP sepharose (Pharmacia). The chromatography buffers were identical to the lysis buffer but contained no lysozyme, deoxyribonuclease I, MgCl2 or protease inhibitor and the NaCl concentration of the buffer was adjusted according to the requirements for charging the protein onto the column. Each column was eluted with a NaCl gradient which varied in length from 5–50 column volumes depending on the column type. After the final chromatography step, the resulting purity of the enzyme is >90% based on SDS-PAGE analysis. The enzyme was aliquoted and stored at −80° C.
HCV NS5B RdRp enzyme assay. HCV RdRp genotype 1b assays were run in assay buffer composed of 20 mM Tris-HCl, pH 7.5, 2.5 mM KCl, 5 mM MgCl2, 1 mM DTT, 1.6 U RNAse inhibitor (Promega N2515), in 96 well plates (Falcon 3918). All compounds were serially diluted in DMSO and diluted further in assay buffer such that the final concentration of DMSO in the assay was 2%. Compounds were serially diluted (3-fold each time) for a 7 point inhibition analysis. HCV RdRp genotype 1b enzyme was used at a final concentration of 28 nM. A polyA template was used at 28 nM, and the oligo-dT12-18 primer was used at 840 nM final concentration. Preannealed primer and template were obtained commercially (Amersham 27-787802). ^3H-UTP was used at 0.125 μCi (1 μM total UTP). Reaction was initiated by the addition of enzyme. Reactions were incubated at 30° C. for 45 min, and stopped by adding 30 ul of 20% ice cold TCA. Plates were chilled for 30 minutes and harvested onto Unifilter-96, GF/B plates (Packard, 6005177) using a Packard FilterMate Cell Harvester. The harvest plates were prewashed 3 times, 200 ul/well, with 100 mM NaPPi. Harvested filters were washed 30 times, 200 ul/well, with distilled water followed by ethanol. Filter plates were dried, and 30 ul/well microscint-20 was added. Plates were read on a Packard Top Count NXT.
The IC50 values for compounds were determined using […] different [I], combined with 7 nM enzyme, 800 ng of the template-primer polyC/oligoG12 (1:5 molar ratio), and 0.7 uM of ^3H GTP containing 1 uCi. The observed fractional activity (fa=vi/vo) was used in the equation IC50=[I]/(1/fa-1) to determine a single point IC50 value. Typically, the single point IC50 values derived from [I] that produced fractional activities in the range of 0.1 to 0.8 relative to the uninhibited control were averaged to calculate the IC50 value for each compound.

Some results are limits rather than exact numbers.

Usually IC50 stands for the midpoint of a concentration-inhibition curve.

T1 sequence (Q9WMX2 2420-2992): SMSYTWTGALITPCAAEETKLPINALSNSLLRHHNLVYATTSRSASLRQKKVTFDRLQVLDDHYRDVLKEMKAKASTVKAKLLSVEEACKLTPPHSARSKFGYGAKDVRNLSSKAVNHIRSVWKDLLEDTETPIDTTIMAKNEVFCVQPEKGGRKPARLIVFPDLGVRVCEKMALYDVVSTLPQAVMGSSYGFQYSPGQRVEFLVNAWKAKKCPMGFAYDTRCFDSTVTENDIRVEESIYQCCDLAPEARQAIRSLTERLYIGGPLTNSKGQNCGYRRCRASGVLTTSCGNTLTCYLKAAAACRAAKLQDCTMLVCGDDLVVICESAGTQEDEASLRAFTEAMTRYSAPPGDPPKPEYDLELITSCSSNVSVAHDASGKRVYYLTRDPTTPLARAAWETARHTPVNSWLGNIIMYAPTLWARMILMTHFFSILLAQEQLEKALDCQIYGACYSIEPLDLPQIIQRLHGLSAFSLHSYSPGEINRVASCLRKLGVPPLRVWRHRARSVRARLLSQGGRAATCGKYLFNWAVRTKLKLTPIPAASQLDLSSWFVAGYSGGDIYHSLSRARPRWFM

The compound `COC(=O)/C=C/c1nn(C2CCCCC2)c(-c2ccc(OCc3ccccc3)cc2)c1-c1ccccc1` [Example 25, Methyl (2E)-3-{5-[4-(benzyloxy)phenyl]-1-cyclohexyl-4-phenyl-1H-pyrazol-3-yl}-2-propenate] gave an IC50 greater than 25 µM.
Compound `COC(=O)/C=C/c1nn(C2CCCCC2)c(-c2ccc(OCc3cc(OC)ccc3-c3ccc(Cl)cc3)cc2)c1-c1ccccc1` [Example 27] showed a 50% inhibitory concentration (IC50) greater than 25 µM.
Under `COc1ccc(-c2ccc(Cl)cc2)c(COc2ccc(-c3c(-c4ccccc4)c(/C=C/C(=O)O)nn3C3CCCCC3)cc2)c1` [Example 28] stands 1.3 µM; under `CCOC(=O)c1cc(C2CCCCC2)n(-c2ccc(OCc3ccccc3)cc2)n1` [Example 29, Ethyl 1-[4-(benzyloxy)phenyl]-5-cyclohexyl-1H-pyrazole-3-carboxylate], greater than 25 µM; under `COC(=O)/C=C/c1cc(C2CCCCC2)n(-c2ccc(OCc3ccccc3)cc2)n1` [Example 30, Methyl (2E)-3-{1-[4-(benzyloxy)phenyl]-5-cyclohexyl-1H-pyrazol-3-yl}-2-propenoate], greater than 25 µM.
Under `O=C(O)/C=C/c1cc(C2CCCCC2)n(-c2ccc(OCc3ccccc3)cc2)n1` [Example 31, (2E)-3-{1-[4-(benzyloxy)phenyl]-5-cyclohexyl-1H-pyrazol-3-yl}-2-propenoic acid] stands 4.5 µM; under `COC(=O)/C=C/c1cc(C2CCCCC2)n(-c2ccc(OCc3cc(OC)ccc3-c3ccc(Cl)cc3)cc2)n1` [Example 32, Methyl (2E)-3-(1-{4-[(4′-chloro-4-methoxy-1,1′-biphenyl-2-yl)methoxy]phenyl}-5-cyclohexyl-1H-pyrazol-3-yl)-2-propenoate], greater than 25 µM.
In turn, `COc1ccc(-c2ccc(Cl)cc2)c(COc2ccc(-n3nc(/C=C/C(=O)O)cc3C3CCCCC3)cc2)c1` [Example 33, (2E)-3-(1-{4-[(4′-chloro-4-methoxy-1,1′-biphenyl-2-yl)methoxy]phenyl}-5-cyclohexyl-1H-pyrazol-3-yl)-2-propenoic acid] yielded an IC50 of 2.4 µM.
Under `CCOC(=O)/C(C)=C/c1cc(C2CCCCC2)n(-c2ccc(OCc3ccccc3)cc2)n1` [Example 34, Ethyl (2E)-3-{1-[4-(benzyloxy)phenyl]-5-cyclohexyl-1H-pyrazol-3-yl}-2-methyl-2-propenoate] stands greater than 25 µM; under `C/C(=C\c1cc(C2CCCCC2)n(-c2ccc(OCc3ccccc3)cc2)n1)C(=O)O` [Example 35, (2E)-3-{1-[4-(benzyloxy)phenyl]-5-cyclohexyl-1H-pyrazol-3-yl}-2-methyl-2-propenoic acid], greater than 25 µM; under `CCOC(=O)/C(C)=C/c1cc(C2CCCCC2)n(-c2ccc(OCc3cc(OC)ccc3-c3ccc(Cl)cc3)cc2)n1` [Example 36, Ethyl (2E)-3-(1-{4-[(4′-chloro-4-methoxy-1,1′-biphenyl-2-yl)methoxy]phenyl}-5-cyclohexyl-1H-pyrazol-3-yl)-2-methyl-2-propenoate], greater than 25 µM.
Under `CCOC(=O)/C(C)=C/c1cc(C2CCCCC2)n(-c2ccc(OCc3cc(C(=O)NC)ccc3-c3ccc(Cl)cc3)cc2)n1` [Example 38] stands greater than 25 µM; under `COC(=O)CCc1cc(C2CCCCC2)n(-c2ccc(OCc3ccccc3)cc2)n1` [Example 40, Methyl 3-{1-[4-(benzyloxy)phenyl]-5-cyclohexyl-1H-pyrazol-3-yl}propanoate], greater than 25 µM.
Under `O=C(O)CCc1cc(C2CCCCC2)n(-c2ccc(OCc3ccccc3)cc2)n1` [Example 41] stands 10 µM; under `COC(=O)CCc1cc(C2CCCCC2)n(-c2ccc(OCc3cc(OC)ccc3-c3ccc(Cl)cc3)cc2)n1` [Example 42, Methyl 3-(1-{4-[(4′-chloro-4-methoxy-1,1′-biphenyl-2-yl)methoxy]phenyl}-5-cyclohexyl-1H-pyrazol-3-yl)propanoate], greater than 25 µM.
The compound `COc1ccc(-c2ccc(Cl)cc2)c(COc2ccc(-n3nc(CCC(=O)O)cc3C3CCCCC3)cc2)c1` [Example 43, 3-(1-{4-[(4′-chloro-4-methoxy-1,1′-biphenyl-2-yl)methoxy]phenyl}-5-cyclohexyl-1H-pyrazol-3-yl)propanoic acid] registered an IC50 of 0.31 µM.
Under `CC(C)(C)OC(=O)/C=C/c1cn(C2CCCCC2)c(-c2ccc(OCc3ccccc3)cc2)n1` [Example 44, tert-butyl (2E)-3-{2-[4-(benzyloxy)phenyl]-1-cyclohexyl-1H-imidazol-4-yl}-2-propenoate] stands greater than 25 µM.
Under `O=C(O)/C=C/c1cn(C2CCCCC2)c(-c2ccc(OCc3ccccc3)cc2)n1` [Example 45, (2E)-3-{2-[4-(benzyloxy)phenyl]-1-cyclohexyl-1H-imidazol-4-yl}-2-propenoic acid] stands 6.6 µM; under `COC(=O)/C=C/c1cn(C2CCCCC2)c(-c2ccc(OCc3ccccc3)cc2)n1` [Example 46, Methyl (2E)-3-{2-[4-(benzyloxy)phenyl]-1-cyclohexyl-1H-imidazol-4-yl}-2-propenoate], greater than 25 µM.
Under `COC(=O)/C=C/c1cn(C2CCCCC2)c(-c2ccc(OCc3cc(OC)ccc3-c3ccc(Cl)cc3)cc2)n1` [Example 47, Methyl (2E)-3-(2-{4-[(4′-chloro-4-methoxy-1,1′-biphenyl-2-yl)methoxy]phenyl}-1-cyclohexyl-1H-imidazol-4-yl)-2-propenoate] stands greater than 25 µM; under `COc1ccc(-c2ccc(Cl)cc2)c(COc2ccc(-c3nc(/C=C/C(=O)O)cn3C3CCCCC3)cc2)c1` [Example 48, (2E)-3-(2-{4-[(4′-chloro-4-methoxy-1,1′-biphenyl-2-yl)methoxy]phenyl}-1-cyclohexyl-1H-imidazol-4-yl)-2-propenoic acid], 5.3 µM.
For `CCOC(=O)/C(C)=C/c1cn(C2CCCCC2)c(-c2ccc(OCc3ccccc3)cc2)n1` [Example 49, Ethyl (2E)-3-{2-[4-(benzyloxy)phenyl]-1-cyclohexyl-1H-imidazol-4-yl}-2-methyl-2-propenoate], the IC50 is greater than 25 µM.
Under `C/C(=C\c1cn(C2CCCCC2)c(-c2ccc(OCc3ccccc3)cc2)n1)C(=O)O` [Example 50, (2E)-3-{2-[4-(benzyloxy)phenyl]-1-cyclohexyl-1H-imidazol-4-yl}-2-methyl-2-propenoic acid] stands 15 µM; under `CCOC(=O)/C(C)=C/c1cn(C2CCCCC2)c(-c2ccc(OCc3cc(OC)ccc3-c3ccc(Cl)cc3)cc2)n1` [Example 51, Ethyl (2E)-3-(2-{4-[(4′-chloro-4-methoxy-1,1′-biphenyl-2-yl)methoxy]phenyl}-1-cyclohexyl-1H-imidazol-4-yl)-2-methyl-2-propenoate], greater than 25 µM.
Under `COc1ccc(-c2ccc(Cl)cc2)c(COc2ccc(-c3nc(/C=C(\C)C(=O)O)cn3C3CCCCC3)cc2)c1` [Example 52, (2E)-3-(2-{4-[(4′-chloro-4-methoxy-1,1′-biphenyl-2-yl)methoxy]phenyl}-1-cyclohexyl-1H-imidazol-4-yl)-2-methyl-2-propenoic acid] stands 2.5 µM.
Under `CNC(=O)c1ccc(-c2ccc(Cl)cc2)c(COc2ccc(-c3nc(/C=C(\C)C(=O)OC(C)(C)C)cn3C3CCCCC3)cc2)c1` [Example 53, Butoxy^t (2E)-3-(2-{4-[(4′-chloro-4-N-methylcarbamoyl-1,1′-biphenyl-2-yl)methoxy]phenyl}-1-cyclohexyl-1H-imidazol-4-yl)-2-methyl-2-propenoate] stands greater than 25 µM.

The values are drawn from patent US7112601B2, “Cycloalkyl heterocycles for treating hepatitis C virus” (priority 2003, dated 2006).
